# Columns and labels:
# [1] = system: mouse peritoneal macrophages; assay: In-vitro assay of macrophage mediated cytotoxicity ([125I]IdUrd radioactive release assay); assay type: cell-based
# Experimental: FMLP was purchased from Sigma Chemical Co. The stock solution (10 mM) was made in methanol and stored at -70° before use. For free form use, the stock solution was diluted to concentrations between 10^-4 M and 10^-7 M with CMEM containing 5% FBS. […]
# Macrophage mediated cytotoxicity was assessed by a radioactive release assay as described in Sone S. and Fidler I. J., Cell Immunology 57, 42 (1981). Target cells in exponential growth phase were incubated for 24 h in medium supplemented with [^125 I]IdUrd (0.2 μCi/ml; specific activity, 200 mCi/mmol; New England Nuclear, Boston, Mass.). The cells then were washed 3 times with warm HBSS to remove unbound radiolabel, harvested by a short trypsinization (0.25% Difco trypsin and 0.02% EDTA for 1 min at 37°), and resuspended in CMEM containing 5% FBS. Viable cells were plated into the wells containing macrophages to achieve a population density of 2500 macrophages and 250 tumor cells per sq mm (or an initial macrophage:target cell ratio of 10/1). At this population density, normal (untreated) macrophages are not cytotoxic to neoplastic cells. No significant differences were detected in the plating efficiency (binding) of [^125 I]IdUrd-labeled target cells to control or liposome-treated macrophage populations. Radiolabeled target cells also were plated alone as an additional control group. The macrophage-target cell cultures were refed with medium 24 h after the addition of the target cells to remove all nonplated cells and then were incubated for up to 3 days at 37°. At this time, the cultures were washed twice with HBSS to remove […], and the remaining viable, adherent cells were lysed with 0.1 ml of 0.1N NaOH. The lysate was absorbed in a cotton swab and placed directly into 10×75 mm tubes; radioactivity was measured in a gamma counter. […] The cytotoxic activity of the macrophages was calculated as follows: [formula] Experimental results were analyzed for their statistical significance by Student's 2-tailed t test.
# [2] = system: mouse peritoneal macrophages; assay: as above; assay type: cell-based; conditions: for cpm +/- S.D.: 10^-8 M FMLP, radioactivity of remaining viable target tumor cells
structure (smiles),measurement,setting,value
"CSCC[C@H](NC=O)C(=O)N[C@@H](CC(C)C)C(=O)N[C@@H](Cc1ccccc1)C(=O)O [Free FMLP, N-formyl-L-methionyl-L-leucyl-L-phenylalanine]",cpm +/- S.D.,"[1]; 10^-4 M FMLP, Expt. I",2478 + 74 cpm
same,cpm +/- S.D.,"[1]; 10^-4 M FMLP, Expt. II",2263 + 361 cpm
same,cpm +/- S.D.,"[1]; 10^-5 M FMLP, Expt. I",2619 + 82 cpm
same,cpm +/- S.D.,"[1]; 10^-5 M FMLP, Expt. II",2455 + 106 cpm
same,cpm +/- S.D.,"[1]; 10^-6 M FMLP, Expt. I",2633 + 61 cpm
same,cpm +/- S.D.,"[1]; 10^-6 M FMLP, Expt. II",2408 + 32 cpm
same,cpm +/- S.D.,"[1]; 10^-7 M FMLP, Expt. I",2559 + 109 cpm
same,cpm +/- S.D.,"[1]; 10^-7 M FMLP, Expt. II",2298 + 178 cpm
same,cpm +/- S.D.,[2]; Expt. I,2567 + 70 cpm
same,cpm +/- S.D.,[2]; Expt. II,2441 + 32 cpm
same,activation of mouse macrophages to lyse target tumor cells,"[2]; all FMLP concentrations (10^-8 to 10^-4 M), 72 hours of co-cultivation",ineffective in rendering macrophages tumoricidal
